Experimental data: patent US20110172296A1, “MODULATION OF TRANSFORMING GROWTH FACTOR-BETA 1 EXPRESSION” (priority 2010, published 2011)
“And” between values parts separate entries of the source, which are not always exact repeats. Equal values may be shown once. In the oligonucleotide strings, read from the 5' end, every base follows the letter of its sugar. An asterisk marks phosphorothioate; unmarked linkages are phosphodiester. Other units and linkages are bracketed, terminal groups are in braces. A string of capitals states the bases alone. e = 2'-O-(2-methoxyethyl) (MOE); [5mC] = 5-methylcytosine; d = 2'-deoxy (DNA)

Test system: human TGF-beta1 mRNA
Experiment: Antisense inhibition of human TGF-beta1 mRNA in HuVEC cells, single 10 nM dose, Lipofectamine 2000 (Example 2)
Type: cell-based
Settings: for % inhibition: 10 nM oligonucleotide, HuVEC, relative to untreated control cells, gapmers targeted to SEQ ID NO: 1; for inhibition of a TGF-beta1 mRNA: threshold lists of Oligo IDs, 10 nM
Protocol: Antisense oligonucleotides targeted to a TGF-beta1 nucleic acid were tested for their effects on TGF-beta1 mRNA in vitro. Cultured HuVEC cells at a density of 5,000 cells per well were transfected using Lipofectamine™ 2000 reagent with 10 nM antisense oligonucleotide for 4 hours. After a recovery period of approximately 24 hours, RNA was isolated from the cells and TGF-beta1 mRNA levels were measured by quantitative real-time PCR. TGF-beta1 mRNA levels were adjusted according to total RNA content, as measured by RIBOGREEN®. Results are presented as percent inhibition of TGF-beta1, relative to untreated control cells.
The chimeric antisense oligonucleotides in Tables 1 and 2 were designed as 2-13-5 MOE gapmers. Antisense molecules with this motif targeting TGF-beta1 are unique, and represent a novel chemical structure for an ASO directed against this target. The gapmers are 20 nucleotides in length, wherein the central gap segments are comprised of thirteen 2′-deoxynucleotides and are flanked on the 5′ side by wings comprising two nucleotides each and on the 3′ side by wings comprising five nucleotides each. Each nucleotide in the 5′ wing segment and each nucleotide in the 3′ wing segment has a 2′-MOE modification. The internucleoside linkages throughout each gapmer are phosphorothioate (P═S) linkages. All cytosine residues throughout each gapmer are 5-methylcytosines. “Target start site” indicates the 5′-most nucleotide to which the gapmer is targeted. “Target stop site” indicates the 3′-most nucleotide to which the gapmer is targeted. Each gapmer listed in Table 1 is targeted to SEQ ID NO: 1 (GENBANK Accession No. NM_000660.3). Each gapmer listed in Table 2 is targeted to SEQ ID NO: 2 (GENBANK Accession No. NT 011109.15 truncated from 14103000 to […]).

Row | Substance | % inhibition [%] | inhibition of a TGF-beta1 mRNA
1 | 414006 (antisense eT*eA*d[5mC]*d[5mC]*dA*dG*dA*dA*dG*dG*dT*dG*dG*dG*dT*eG*eG*eT*e[5mC]*eT) [compound 414006] | 85 | 60% and 65% and 70% and 75% and 80% and 85%
2 | 414007 (antisense eG*eG*dT*dA*d[5mC]*d[5mC]*dA*dG*dA*dA*dG*dG*dT*dG*dG*eG*eT*eG*eG*eT) [compound 414007] | 94 | 60% and 65% and 70% and 75% and 80% and 85% and 90%
3 | 414008 (antisense e[5mC]*eT*dG*dG*dT*dA*d[5mC]*d[5mC]*dA*dG*dA*dA*dG*dG*dT*eG*eG*eG*eT*eG) [compound 414008] | 89 | 60% and 65% and 70% and 75% and 80% and 85%
4 | 414009 (antisense eA*eT*d[5mC]*dT*dG*dG*dT*dA*d[5mC]*d[5mC]*dA*dG*dA*dA*dG*eG*eT*eG*eG*eG) [compound 414009] | 80 | 60% and 65% and 70% and 75% and 80%
5 | 414010 (antisense e[5mC]*eG*dA*dT*d[5mC]*dT*dG*dG*dT*dA*d[5mC]*d[5mC]*dA*dG*dA*eA*eG*eG*eT*eG) [compound 414010] | 88 | 60% and 65% and 70% and 75% and 80% and 85%
6 | 414011 (antisense e[5mC]*eG*d[5mC]*dG*dA*dT*d[5mC]*dT*dG*dG*dT*dA*d[5mC]*d[5mC]*dA*eG*eA*eA*eG*eG) [compound 414011] | 85 | 60% and 65% and 70% and 75% and 80% and 85%
7 | 414012 (antisense eG*eG*d[5mC]*dG*d[5mC]*dG*dA*dT*d[5mC]*dT*dG*dG*dT*dA*d[5mC]*e[5mC]*eA*eG*eA*eA) [compound 414012] | 87 | 60% and 65% and 70% and 75% and 80% and 85%
8 | 414013 (antisense eT*eG*dG*dG*d[5mC]*dG*d[5mC]*dG*dA*dT*d[5mC]*dT*dG*dG*dT*eA*e[5mC]*e[5mC]*eA*eG) [compound 414013] | 90 | 60% and 65% and 70% and 75% and 80% and 85% and 90%
9 | 414014 (antisense eG*eA*dT*dG*dG*dG*d[5mC]*dG*d[5mC]*dG*dA*dT*d[5mC]*dT*dG*eG*eT*eA*e[5mC]*e[5mC]) [compound 414014] | 89 | 60% and 65% and 70% and 75% and 80% and 85%
10 | 414015 (antisense e[5mC]*e[5mC]*dT*dA*dG*dA*dT*dG*dG*dG*d[5mC]*dG*d[5mC]*dG*dA*eT*e[5mC]*eT*eG*eG) [compound 414015] | 83 | 60% and 65% and 70% and 75% and 80%
11 | 414016 (antisense eA*eA*d[5mC]*d[5mC]*dT*dA*dG*dA*dT*dG*dG*dG*d[5mC]*dG*d[5mC]*eG*eA*eT*e[5mC]*eT) [compound 414016] | 78 | 60% and 65% and 70% and 75%
12 | 414017 (antisense eA*eT*dA*dA*d[5mC]*d[5mC]*dT*dA*dG*dA*dT*dG*dG*dG*d[5mC]*eG*e[5mC]*eG*eA*eT) [compound 414017] | 77 | 60% and 65% and 70% and 75%
13 | 414018 (antisense eA*eA*dA*dT*dA*dA*d[5mC]*d[5mC]*dT*dA*dG*dA*dT*dG*dG*eG*e[5mC]*eG*e[5mC]*eG) [compound 414018] | 82 | 60% and 65% and 70% and 75% and 80%
14 | 414019 (antisense eG*eG*dA*dA*dA*dT*dA*dA*d[5mC]*d[5mC]*dT*dA*dG*dA*dT*eG*eG*eG*e[5mC]*eG) [compound 414019] | 78 | 60% and 65% and 70% and 75%
15 | 414020 (antisense eG*eG*dA*dG*dG*d[5mC]*d[5mC]*d[5mC]*d[5mC]*dG*d[5mC]*d[5mC]*d[5mC]*d[5mC]*dT*eG*e[5mC]*eA*eG*eG) [compound 414020] | 0 | –
